Assays:
[1] = tested on: Human (mixed gender) hepatocytes pooled from 10 donors; assay: In vitro intrinsic clearance in human hepatocytes; format: in vitro ADME; conditions: human hepatocytes 0.545 million cells/mL, 5 μM, up to 60 minutes at 37° C.; weighted by ratio of D0, D1 and D2
Protocol: To use human hepatocytes to assess the in vitro intrinsic clearance of deuterated DMT analogue blends relative to DMT.
Human (mixed gender) hepatocytes pooled from 10 donors (0.545 million cells/mL) were used to investigate the in vitro intrinsic clearance of DMT and 6 deuterated analogues.
A concentration of 5 μM was used for all test compounds, as well as sumatriptan, serotonin, benzylamine controls. This concentration was chosen in order to maximise the signal-to-noise ratio, while remaining under the Michaelis constant (Km) for the monoamine oxidase enzyme (MAO). Diltiazem and diclofenac controls were used at a laboratory-validated concentration of 1 μM.
Test compounds were mixed with the hepatocyte suspension within a 96-well plate and incubated for up to 60 minutes at 37° C. […] At 7 time points, small aliquots were withdrawn, and the test compound/blend concentration therein was measured by LC-MS/MS. The time points measured were 2, 4, 8, 15, 30, 45 and 60 minutes. […]
The resulting concentration-time profile was then used to calculate intrinsic clearance (CLint) and half-life (t½). […] Intrinsic clearance is calculated from the slope/elimination rate constant and the formula is CLint=(−1000*slope)/cell denisty in 1E6 cells/ml, to give units of microlitre/min/million cells.
Intrinsic clearance and half-life values were calculated for DMT and the 6 deuterated mixtures described above.

[2] = short-acting psychedelic; cited from earlier work

Compound	Intrinsic clearance [1] [μL/min/million cells]	duration of action [2]
CN(C)CCc1c[nH]c2ccccc12 [DMT, N,N-dimethyltryptamine]	13.77	
CN(C)CCc1c[nH]c2ccccc12 [N,N-dimethyltryptamine (DMT)]		under 20 minutes

From patent US12076311B2, “Therapeutic compositions comprising deuterated or partially deuterated N,N-dimethyltryptamine compounds” (CYBIN UK LTD, priority 2019, dated 2024)
